{
  "source": "patent US20040009464A1",
  "about": "“Methods for identifying compounds for inhibition of neoplastic lesions, and pharmacetical compositions containing such compounds” (priority 1998, published 2004)",
  "key": {"[1]": {"system": "PKG in SW480 colon cancer cells", "test": "PKG activity assay on lysates of drug-treated SW480 cells", "format": "cell-based, human", "conditions": "SW480, 48 hrs, with and without added cGMP", "text": "That sequence is known and described in the literature below. […] One way to bind the PDE5 sequences to a solid phase is to express those sequences as a fusion protein of the PDE5 sequence and one member of an amino acid binding pair, and chemically link the other member of that amino acid binding pair to a solid phase (e.g., beads). One binding pair that can be used is glutathione S-transferase (“GST”) and glutathione (“GSH”), with the GST being expressed as a fusion protein with the PDE5 sequence described above, and the GSH bound covalently to the solid phase. In this fashion, the PDE5 sequence/GST fusion protein can be bound to a solid phase simply by passing a solution containing the fusion protein over the solid phase, as described below.\nTo assay a liquid sample believed to contain PKG using the PDE5-bound solid phase described above, the sample and the solid phase are mixed with phosphorylation buffer containing ^32P-γ-ATP. The solution is incubated for 30 minutes at 30° C. to allow for phosphorylation of the PDE5 sequence by PKG to occur, if PKG is present. […]\nFor each control or drug cell lysate sample to be evaluated, the reaction is started by adding phosphorylation buffer containing 10 μCi ^32P-γ-ATP solution (200 μM ATP, 4.5 mM MgCl; 5 mM KH2PO4; 5 mM K2HPO4;) to each mixture. […]"}, "[2]": {"system": "premalignant lesions in mouse mammary gland organ culture", "test": "Mammary gland organ culture model", "format": "cell-based", "conditions": "FIG. 17", "text": "Test compounds identified by the above methods can be tested for antineoplastic activity by their ability to inhibit the incidence of pre-neoplastic lesions in a mammary gland organ culture system. This mouse mammary gland organ culture technique has been successfully used by other investigators to study the effects of known antineoplastic agents such as certain NSAIDs, retinoids, tamoxifen, selenium, and certain natural products, and is useful for validation of the screening method of the present invention.\nFor example, female BALB/c mice can be treated with a combination of estradiol and progesterone daily, in order to prime the glands to be responsive to hormones in vitro. The animals are sacrificed, and thoracic mammary glands are excised aseptically and incubated for ten days in growth media supplemented with insulin, prolactin, hydrocortisone, and aldosterone. DMBA (7,12-dimethylbenz(a)anthracene) is added to medium to induce the formation of premalignant lesions Fully developed glands are then deprived of prolactin, hydrocortisone, and aldosterone, resulting in the regression of the glands but not the pre-malignant lesions.\nThe test compound is dissolved in DMSO and added to the culture media for the duration of the culture period. At the end of the culture period, the glands are fixed in 10% formalin, stained with alum camine, and mounted on glass slides. The incidence of forming mammary lesions is the ratio of the glands with mammary lesions to […]. The incidence of mammary lesions in test compound treated glands is compared with that of the untreated glands.\nThe extent of the area occupied by the mammary lesions can be quantitated by projecting an image of the gland onto a digitation pad. The area covered by the gland is traced on the pad and considered as 100% of the area. The space covered by each of the non-regressed structures is also outlined on the digitization pad and quantitated by the computer.\nMammary gland organ culture experiment were performed as previously described (Mehta and Moon, Cancer Research, 46: 5832-5835, 1986). […]"}, "[3]": {"system": "PKG in HCT116 colon cancer cells", "test": "PKG activity assay on lysates of drug-treated HCT116 cells", "format": "cell-based", "text": "To test the effect of cGMP-specific PDE inhibition on neoplasia containing the β-catenin mutation, HCT116 colon cancer celis were employed. HCT116 is known to contain the β-catenin mutation, but is known not to contain the APC mutation.\nThe same procedure is used to grow the HCT116 cells as is used in the SW480 procedure described above. In this experiment, only exisulind and controls were used."}},
  "data": [
    {"smiles": "CC1=C(CC(=O)O)c2cc(F)ccc2/C1=C\\c1ccc(S(C)(=O)=O)cc1", "note": "[Exisulind, 5-fluoro-2-methyl-1-(p-methylsulfonylbenzylidene)-3-indenylacetic acid]", "values": [
      {"measurement": "PKG activity relative to control", "setting": "[1]", "result": "causes PKG activity to increase in a dose-dependent manner"},
      {"measurement": "inhibition of premalignant lesions in mammary gland organ culture", "setting": "[2]", "result": "effectively inhibit the formation of premalignant lesions"},
      {"measurement": "PKG activity relative to control", "setting": "[3]", "result": "PKG that was phosphorylated to a greater extent than the corresponding controls"}
    ]}
  ]
}
